Assay results: paper PMC11676667, “Pharmacokinetics of Oral Cannabinoid Δ8-Tetrahydrocannabivarin and Its Main Metabolites in Healthy Participants” (Pharmaceuticals, 2024)
Like-named read-outs stand apart in the source and are kept apart here.

Experiment: Plasma pharmacokinetics after single oral dose of Δ8-THCV in MCT oil (LC-MS/MS, non-compartmental analysis)
Assay type: in vivo, human
Design: Clast (last quantifiable concentration): unit not given here
Details: for Clast (last quantifiable concentration) / tlast (time to last quantifiable concentration) / concentration at 0.5 h / concentration at 1 h / concentration at 2 h / concentration at 4 h / concentration at 6 h / concentration at 8 h / Tmax / AUC(0-t) / Cmax / MRT: plasma; for plasma concentration: Predose; for concentration at 0.5 h / concentration at 1 h / concentration at 2 h / concentration at 4 h / concentration at 6 h / concentration at 8 h / Tmax / AUC(0-t) / Cmax / MRT: human; for Tmax: read-out: tmax; for MRT: read-out: MRT (mean residence time)
Experimental: The study was a two-phase, dose-ranging, placebo-controlled trial in 21 healthy participants to assess the safety, tolerability, PK, and PD of an oral formulation of Δ8-THCV. A detailed description of the study was published elsewhere. The study product was a medium-chain triglyceride (MCT) oil oral formulation of Δ8-THCV at a concentration of 50 mg/mL. […] MCT oil was used as placebo.
Twenty-one participants were enrolled in the clinical study and plasma samples from 15 participants were sent to our laboratory for pharmacokinetic evaluation. Of these, 3 participants were enrolled in Phase 1, an unblinded, placebo-controlled, single ascending dose design and 12 were enrolled in Phase 2, a double-blind, randomized, placebo-controlled, within-participant crossover design. At each study session, participants received one of the following oral doses: placebo, 12.5 mg, 25 mg, 50 mg, 100 mg, and 200 mg of the aforementioned Δ8-THCV formulation in MCT. Study visits were separated by a washout period of a minimum of one week and maximum of 28 days. Participants entered the research facility the night before the session and received the study product in the morning after a standardized high-fat, high-calorie breakfast. PK blood samples included in this analysis were collected prior to dosing and 0.5, 1, 2, 4, 6, and 8 h after dose. Immediately following collection into K2EDTA tubes, blood samples were placed on wet ice, centrifuged, and plasma was immediately frozen at −80 °C until shipment to the bioanalytical laboratory (iC42 Clinical Research and Development, University of Colorado, Aurora, CO, USA) on dry ice.
Plasma samples were analyzed using a validated high-performance liquid chromatography–tandem mass spectrometry (LC-MS/MS) assay. The assay included Δ8-THCV and its main metabolites 11-OH-Δ8-THCV and Δ8-THCV-COOH, Δ9-THCV and its main metabolite Δ9-THCV-COOH, and Δ9-THC and Δ8-THC as well as their main metabolites (Figure 3). The complete list of analyzed compounds and a summary of the key performance parameters of the assay are presented in Appendix A and Table A1 and Table A2. […] For the PK analysis, concentrations below the lower limit of quantification were set to 0 ng/mL. PK parameters were calculated using non-compartmental analysis (Phoenix WinNonlin version 8.4., Certara, Princeton, NJ, USA). Statistical analysis was carried out using GraphPad Prism (version 10, Boston, MA, USA).

[1] = 12.5 mg single oral Δ8-THCV in MCT oil, Mean (±SD)
[2] = 12.5 mg single oral Δ8-THCV in MCT oil, Median (Range)
[3] = 25 mg single oral Δ8-THCV in MCT oil, Mean (±SD)
[4] = 25 mg single oral Δ8-THCV in MCT oil, Median (Range)
[5] = 50 mg single oral Δ8-THCV in MCT oil, Mean (±SD)
[6] = 50 mg single oral Δ8-THCV in MCT oil, Median (Range)
[7] = 100 mg single oral Δ8-THCV in MCT oil, Mean (±SD)
[8] = 100 mg single oral Δ8-THCV in MCT oil, Median (Range)
[9] = 200 mg single oral Δ8-THCV in MCT oil, Mean (±SD)
[10] = 200 mg single oral Δ8-THCV in MCT oil, Median (Range)
[11] = oral, 12.5 mg, 12.5 mg Δ8-THCV dose, Mean (SD, %CV)
[12] = oral, 12.5 mg, 12.5 mg Δ8-THCV dose, Median (IQ Range)
[13] = oral, 25 mg, 25 mg Δ8-THCV dose, Mean (SD, %CV)
[14] = oral, 25 mg, 25 mg Δ8-THCV dose, Median (IQ Range)
[15] = oral, 50 mg, 50 mg Δ8-THCV dose, Mean (SD, %CV)
[16] = oral, 50 mg, 50 mg Δ8-THCV dose, Median (IQ Range)
[17] = oral, 100 mg, 100 mg Δ8-THCV dose, Mean (SD, %CV)
[18] = oral, 100 mg, 100 mg Δ8-THCV dose, Median (IQ Range)
[19] = oral, 200 mg, 200 mg Δ8-THCV dose, Mean (SD, %CV)
[20] = oral, 200 mg, 200 mg Δ8-THCV dose, Median (IQ Range)
[21] = po, 12.5 mg, 12.5 mg single oral Δ8-THCV in MCT oil, Mean (±SD)
[22] = po, 12.5 mg, 12.5 mg single oral Δ8-THCV in MCT oil, Median (Range)
[23] = po, 25 mg, 25 mg single oral Δ8-THCV in MCT oil, Mean (±SD)
[24] = po, 25 mg, 25 mg single oral Δ8-THCV in MCT oil, Median (Range)
[25] = po, 50 mg, 50 mg single oral Δ8-THCV in MCT oil, Mean (±SD)
[26] = po, 50 mg, 50 mg single oral Δ8-THCV in MCT oil, Median (Range)
[27] = po, 100 mg, 100 mg single oral Δ8-THCV in MCT oil, Mean (±SD)
[28] = po, 100 mg, 100 mg single oral Δ8-THCV in MCT oil, Median (Range)
[29] = po, 200 mg, 200 mg single oral Δ8-THCV in MCT oil, Mean (±SD)
[30] = po, 200 mg, 200 mg single oral Δ8-THCV in MCT oil, Median (Range)

CCCc1cc(O)c2c(c1)OC(C)(C)[C@@H]1CCC(C(=O)O)=C[C@@H]21 [Δ9-THCV-COOH, 11-nor-9-carboxy-Δ9-THCV]
Clast (last quantifiable concentration) [1]: 1.9 (±0.8)
tlast (time to last quantifiable concentration) [1]: 6.8 (±1.7)
Clast (last quantifiable concentration) [2]: 1.7 (1.1–3.3)
tlast (time to last quantifiable concentration) [2]: 8 (4–8)
Clast (last quantifiable concentration) [3]: 2.6 (±1)
tlast (time to last quantifiable concentration) [3]: 7.6 (±1.2)
Clast (last quantifiable concentration) [4]: 2.4 (1.3–4.4)
tlast (time to last quantifiable concentration) [4]: 8 (4–8)
Clast (last quantifiable concentration) [5]: 5.4 (±1.9)
tlast (time to last quantifiable concentration) [5]: 8 (±0)
Clast (last quantifiable concentration) [6]: 5.2 (2.4–8.5)
tlast (time to last quantifiable concentration) [6]: 8 (8–8)
Clast (last quantifiable concentration) [7]: 10.8 (±3.7)
tlast (time to last quantifiable concentration) [7]: 8 (±0)
Clast (last quantifiable concentration) [8]: 10.5 (6.2–16.1)
tlast (time to last quantifiable concentration) [8]: 8 (8–8)
Clast (last quantifiable concentration) [9]: 29.2 (±16.1)
tlast (time to last quantifiable concentration) [9]: 8 (±0)
Clast (last quantifiable concentration) [10]: 26.3 (10.9–63.8)
tlast (time to last quantifiable concentration) [10]: 8 (8–8)
plasma concentration (12.5 mg Δ8-THCV dose, Mean (SD, %CV)): 0 (±0, --) ng/mL
plasma concentration (12.5 mg Δ8-THCV dose, Median (IQ Range)): 0 (0–0) ng/mL
plasma concentration (25 mg Δ8-THCV dose, Mean (SD, %CV)): 0 (±0, --) ng/mL
plasma concentration (25 mg Δ8-THCV dose, Median (IQ Range)): 0 (0–0) ng/mL
plasma concentration (50 mg Δ8-THCV dose, Mean (SD, %CV)): 0 (±0, --) ng/mL
plasma concentration (50 mg Δ8-THCV dose, Median (IQ Range)): 0 (0–0) ng/mL
plasma concentration (100 mg Δ8-THCV dose, Mean (SD, %CV)): 0 (±0, --) ng/mL
plasma concentration (100 mg Δ8-THCV dose, Median (IQ Range)): 0 (0–0) ng/mL
plasma concentration (200 mg Δ8-THCV dose, Mean (SD, %CV)): 0 (±0, --) ng/mL
plasma concentration (200 mg Δ8-THCV dose, Median (IQ Range)): 0 (0–0) ng/mL
concentration at 0.5 h [11]: 0 ng/mL
concentration at 0.5 h [12]: 0 ng/mL
concentration at 1 h [11]: 0.1 ng/mL
concentration at 1 h [12]: 0 ng/mL
concentration at 2 h [11]: 0.5 ng/mL
concentration at 2 h [12]: 0 ng/mL
concentration at 4 h [11]: 1.9 ng/mL
concentration at 4 h [12]: 1.8 ng/mL
concentration at 6 h [11]: 1.5 ng/mL
concentration at 6 h [12]: 1.3 ng/mL
concentration at 8 h [11]: 1.2 ng/mL
concentration at 8 h [12]: 1.4 ng/mL
concentration at 0.5 h [13]: 0 ng/mL
concentration at 0.5 h [14]: 0 ng/mL
concentration at 1 h [13]: 0.7 ng/mL
concentration at 1 h [14]: 0 ng/mL
concentration at 2 h [13]: 1.6 ng/mL
concentration at 2 h [14]: 1.7 ng/mL
concentration at 4 h [13]: 3.7 ng/mL
concentration at 4 h [14]: 3.6 ng/mL
concentration at 6 h [13]: 3 ng/mL
concentration at 6 h [14]: 2.4 ng/mL
concentration at 8 h [13]: 2.3 ng/mL
concentration at 8 h [14]: 2.3 ng/mL
concentration at 0.5 h [15]: 0 ng/mL
concentration at 0.5 h [16]: 0 ng/mL
concentration at 1 h [15]: 0.6 ng/mL
concentration at 1 h [16]: 0 ng/mL
concentration at 2 h [15]: 2.3 ng/mL
concentration at 2 h [16]: 0 ng/mL
concentration at 4 h [15]: 5.4 ng/mL
concentration at 4 h [16]: 5 ng/mL
concentration at 6 h [15]: 6.7 ng/mL
concentration at 6 h [16]: 5.9 ng/mL
concentration at 8 h [15]: 5.4 ng/mL
concentration at 8 h [16]: 5.2 ng/mL
concentration at 0.5 h [17]: 0.3 ng/mL
concentration at 0.5 h [18]: 0 ng/mL
concentration at 1 h [17]: 5.8 ng/mL
concentration at 1 h [18]: 1.9 ng/mL
concentration at 2 h [17]: 9.2 ng/mL
concentration at 2 h [18]: 8.7 ng/mL
concentration at 4 h [17]: 16.1 ng/mL
concentration at 4 h [18]: 16 ng/mL
concentration at 6 h [17]: 15.6 ng/mL
concentration at 6 h [18]: 17.5 ng/mL
concentration at 8 h [17]: 10.8 ng/mL
concentration at 8 h [18]: 10.5 ng/mL
concentration at 0.5 h [19]: 0.1 ng/mL
concentration at 0.5 h [20]: 0 ng/mL
concentration at 1 h [19]: 4.9 ng/mL
concentration at 1 h [20]: 2.7 ng/mL
concentration at 2 h [19]: 19.1 ng/mL
concentration at 2 h [20]: 9.4 ng/mL
concentration at 4 h [19]: 37.1 ng/mL
concentration at 4 h [20]: 40 ng/mL
concentration at 6 h [19]: 32.3 ng/mL
concentration at 6 h [20]: 28.5 ng/mL
concentration at 8 h [19]: 29.2 ng/mL
concentration at 8 h [20]: 26.3 ng/mL
Tmax (oral, present study, MCT oil formulation, as compared in discussion): 5 h
AUC(0-t) [21]: 7.9 ng·h/mL
Cmax [21]: 2.7 ng/mL
AUC(0-t) [22]: 5.6 ng·h/mL
Cmax [22]: 2.8 ng/mL
MRT [21]: 5.1 h
Tmax [21]: 5.1 h
MRT [22]: 5.3 h
Tmax [22]: 4 h
AUC(0-t) [23]: 18.3 ng·h/mL
Cmax [23]: 4.2 ng/mL
AUC(0-t) [24]: 19.6 ng·h/mL
Cmax [24]: 4.4 ng/mL
MRT [23]: 4.8 h
Tmax [23]: 4.6 h
MRT [24]: 4.6 h
Tmax [24]: 4 h
AUC(0-t) [25]: 33.4 ng·h/mL
Cmax [25]: 8.8 ng/mL
AUC(0-t) [26]: 30.8 ng·h/mL
Cmax [26]: 7.7 ng/mL
MRT [25]: 5.5 h
Tmax [25]: 5.1 h
MRT [26]: 5.5 h
Tmax [26]: 6 h
AUC(0-t) [27]: 92.5 ng·h/mL
Cmax [27]: 22.5 ng/mL
AUC(0-t) [28]: 86.5 ng·h/mL
Cmax [28]: 20.6 ng/mL
MRT [27]: 4.9 h
Tmax [27]: 4.5 h
MRT [28]: 4.6 h
Tmax [28]: 4 h
AUC(0-t) [29]: 201 ng·h/mL
Cmax [29]: 50.3 ng/mL
AUC(0-t) [30]: 190 ng·h/mL
Cmax [30]: 48.2 ng/mL
MRT [29]: 5.1 h
Tmax [29]: 5.3 h
MRT [30]: 5.2 h
Tmax [30]: 6 h
number of positive plasma samples (of 504 plasma samples from 15 participants after oral Δ8-THCV): 260
concentration in representative plasma sample (one subject after oral Δ8-THCV in MCT oil, Figure A1): 33.2 ng/mL
